Common to all, as to format: in vivo, Guinea pig
Test [1] concerns bronchial muscles. The experiment in a line: Bronchospasmolytic effect and its duration, modified Konzett-Rossler test. Particulars: male white Guinea pigs, anesthesized; V. jugularis; asthmogenic agent not specified. The protocol: (§1) To test the bronchospasmolytic activity of the compounds of the invention the following experiments were carried through:
(§2) TEST ACCORDING TO KONZETT-ROSSLER
(§3) To test the bronchospasmolytic activity the respiratory volume was measured by the method of Konzett-Rossler, according to which the air volume is measured which is taken up by the lung when the maximum inflation pressure is maintained constant and a constant volume is offered by high pressure respiration. Capacity variations in the respiratory tract result in an increase or decrease of the amount of air taken up by the lung under the given constant inflation pressure.
(§4) As test animals male white Guinea pigs having a weight of from 400 to 500 grams were used which had been anesthesized with 10 mg/kg i.p. of Evipan and 200 mg/kg i.p. of urethane. The substance to be tested was administered by means of a catheter in the V. jugularis. The positive pressure respiration depended on the normal respiratory volume of the test animal and could be adapted suitably and readily to the individual test animal. In the tests carried through the pressure indicated by Rosenthal and Dervinis of 80 mm H2 O was used. During the recovery phase after a bronchospastic reaction the flexible hose leading to the water manometer was clamped off for a short period of time in order to open deflating lung segments. The respiration frequency amounted to 64-72 per minute. The respiratory volume was measured according to the slightly modified Konzett-Rossler method wherein the piston recorder was replaced by a back-pressure tube according to Fleisch (type 0000). The occuring pressure difference was recorded by a difference pressure recorder of the type Statham PM 97 CT. To record the measured values a multi-channel recorder of Messrs. Hellige was used. The substance to be tested was used in the form of a standard solution in absolute alcohol. Directly prior to the start of the test it was diluted to the required final concentration with phosphate buffer (pH 7.4). The asthmogenic solution was prepared with double distilled water.
(§5) As asthmogenic agents histamine dihydrochloride, acetyl choline chloride and sertonine creatinine sulfate were used. To reduce the error resulting from individual differences in the bronchospasm intensity with a uniform dose of asthmogenic agent, the dosage unit was chosen such that an about 70 to 80% decrease of the absorption capacity of the lung was obtained. The experimental data were subjected to the regression analysis according to the probit transformation and the equation of the straight lines of regression y=a+b log x was calculated. In this manner the average inhibition dose (ID50 =the dose which inhibits the effect of the asthmogenic agent to 50% of the initial value) was found. Additionally, the results obtained by carrying out a simple variance analysis in the Duncan Test were compared with the control.

Test [2] deals with spasm caused by acetylcholine. Kind of test: Bronchospasmolytic activity, modified Konzett-Rossler test, acetylcholine-induced bronchospasm. Particulars: dose inhibiting effect of asthmogenic agent to 50% of initial value, male white Guinea pigs, anesthesized, V. jugularis. The protocol: as §1, §2, §3, §4
as §5, with “Additionally, the results obtained by carrying out a simple variance analysis in the Duncan Test were compared with the control.” left out

In test [3] the test system is bronchospasm caused by histamine. Kind of test: Bronchospasmolytic activity, modified Konzett-Rossler test, histamine-induced bronchospasm. As to conditions: dose inhibiting effect of asthmogenic agent to 50% of initial value, male white Guinea pigs, anesthesized, V. jugularis. The protocol: as §1, §2, §3, §4, §5
Test [4] deals with spasm initiated by serotonin. Kind of test: Bronchospasmolytic activity, modified Konzett-Rossler test, serotonin-induced bronchospasm. Particulars: dose inhibiting effect of asthmogenic agent to 50% of initial value, male white Guinea pigs, anesthesized, V. jugularis. The protocol:
as §1, §2, §3
as §4, with “The substance to be tested was used in the form of a standard solution in absolute alcohol. Directly prior to the start of the test it was diluted to the required final concentration with phosphate buffer (pH 7.4). The asthmogenic solution was prepared with double distilled water.” left out
As asthmogenic agents histamine dihydrochloride, acetyl choline chloride and sertonine creatinine sulfate were used. […] The experimental data were subjected to the regression analysis according to the probit transformation and the equation of the straight lines of regression y=a+b log x was calculated. […]

SMILES strings stand for the structures.

`CCCCCCOC(=O)CCCC(C)CC[C@H]1C(=O)CC[C@@H]1/C=C/[C@@H](O)CCCCC` (stereo partly shown) [Example 1, 5-Methyl-10,11-dihydroproxtaglandin-A1 n-hexyl ester]: in test [1], the duration of effect amounted to 30 min. This compound also had an ID50 values acetylcholine in test [2] of 3 ng/animal. In test [3], the ID50 values histamine amounted to 1 ng/animal.

In turn, `CCCCCCCCCCOC(=O)CCCC(C)CC[C@H]1C(=O)CC[C@@H]1/C=C/[C@@H](O)CCCCC` (stereo partly shown) [Example 2, 5-Methyl-10,11-dihydroprostaglandin-A1 n-decyl ester] registered a duration of effect in test [1] of 30 to 45 min. Also, the ID50 values histamine in test [3] came out at 4.2 ng/animal.

Turning to `CCCCC[C@H](O)/C=C/[C@H]1CCC(=O)[C@@H]1CCC(C)CCCC(=O)OCCCC` (stereo partly shown) [Example 3, 5-Methyl-10,11-dihydroprostaglandin-A1 n-butyl ester], in test [1], the duration of effect lay within 15 to 20 min. In test [2], this compound had an ID50 values acetylcholine of 6.9 ng/animal. For the same compound, the ID50 values histamine in test [3] came out at 0.63 ng/animal. The compound further came in with an ID50 values serotonin in test [4] of 1.2 ng/animal.

On to `CCCCC[C@H](O)/C=C/[C@H]1CCC(=O)[C@@H]1CCC(C)CCCC(=O)OCCCC(C)(C)C` (stereo partly shown) [Example 4], for which, in test [1], the duration of effect fell in the range of 20 to 25 min. In addition, in test [3], the ID50 values histamine was 7 ng/animal.

The compound `CCCCC[C@H](O)/C=C/[C@H]1CCC(=O)[C@@H]1CCC(C)CCCC(=O)OC1CCCCC1` (stereo partly shown) [Example 6, 5-Methyl-10,11-dihydroprostaglandin-A1 cyclohexyl ester] showed a duration of effect in test [1] of 60 min. The compound also had an ID50 values histamine in test [3] of 7.5 ng/animal.

Take `CCCCC[C@H](O)/C=C/[C@H]1CCC(=O)[C@@H]1CCC(C)CCCC(=O)OCCOCC` (stereo partly shown) [Example 7, 5-Methyl-10,11-dihydroprostaglandin-A1-2-ethoxyethyl ester]: the duration of effect in test [1] lay in the range of 10 to 20 min. The same compound yielded an ID50 values acetylcholine in test [2] of 0.88 ng/animal. For the same compound, the ID50 values histamine in test [3] is given as 0.4 ng/animal. The compound further showed an ID50 values serotonin in test [4] of 0.86 ng/animal.

In the case of `CCCCC[C@H](O)/C=C/[C@H]1CCC(=O)[C@@H]1CCC(C)CCCC(=O)OCCCc1ccccc1` (stereo partly shown) [Example 9, 5-Methyl-10,11-dihydroprostaglandin-A1-3-phenylpropyl ester], the duration of effect in test [1] worked out at 25 min. In addition, in test [3], the ID50 values histamine was determined as 1 ng/animal.

Regarding `CCCCC[C@H](O)/C=C/[C@H]1CCC(=O)[C@@H]1CCC(C)CCCC(=O)O` (stereo partly shown) [comp. II, 5-methyl-10,11-dihydroprostaglandin-A1], the ID50 values acetylcholine in test [2] was 10 ng/animal. The same compound returned an ID50 values histamine in test [3] of 5 ng/animal. In addition, the ID50 values serotonin in test [4] came out at 9 ng/animal.

Source of the values: patent publication US4198429A, “Esters of 5-methyl-10,11-dihydroprostaglandin-A1” (Hoechst Aktiengesellschaft, priority 1976, dated 1980).
